Blank lines part the entries; values can stand above or below the substance they belong to. Ends that are not written are not given here.
What was measured:
[1] = system: Human peripheral blood mononuclear (PBM) cells; experiment: PHA-stimulated PBM cell proliferation in serum-free CFBI medium; type: cell-based; conditions: for IC50: read-out: Average Specific Activity (peptide concentration that causes a 50% reduction in activity)
Method: In these studies, human peripheral blood mononuclear (PBM) cells were isolated and assayed for phytohemagglutinin (PHA)-stimulated proliferation as described by Pepe et al (J. Immunol., 136:3716-3723, 1986) except that the cells were resuspended and cultured in a serum-free and protein-free CFBI medium as described by Shive et al, Proc. Natl. Acad. Sci. […] After 48 h the cultures were pulsed for 18 h with […] of [^3 H]-methylthymidine and harvested onto glass fiber filters. Radioactivity of the filters was counted in a Beckman liquid scintillation counter. […] The average biological activity of each polypeptide for inhibiting lymphocyte […] proliferation is shown in Table 6, and is expressed as an average specific activity, which is the peptide concentration that causes a 50% reduction in activity.

fibroblast LDL receptors = target: T1, fibroblast LDL receptors (Homo sapiens, UniProt P01130); experiment: 125I-LDL binding to fibroblasts; conditions: for effect of substitution on ability to inhibit binding of 125I-LDL to fibroblasts: substitution at both positions of tandem peptide
T1 construct: transferred to DMEM medium with 10% lipoprotein-depleted serum (LPDS) for 48 hr to upregulate the LDL receptors; endogenous in cells; host or cells: normal fibroblasts
Source text: The role of specific amino acids within residues 141-155 of intact apo E has been studied by Lalazar et al., J. Biol. Chem., 263:3542 (1988) with human apo E variants containing single amino acid substitutions. The variants were produced in a bacterial expression system complexed with the phospholipid, dimyristoylphosphatidylcholine (DMPC) and tested for their ability to bind to fibroblast LDL receptors. Lalazar et al., J. Biol. Chem., 263:3542 (1988). To confirm that the tandem peptide was bound by the LDL receptor and to identify amino acids within this peptide that were critical for binding, three tandem peptides were prepared as described in Example 1 that contained the same amino acid substitutions at both positions in the tandem sequence. The changes included substitutions of the basic amino acids Lys 143 to Ala, Arg 150 to Ala, and Leu 144 with an alpha helix disrupting amino acid, Pro. ^125 I-LDL at a specific activity of 700-900 cpm/ng (>99% precipitable by 10% TCA) was used for the binding assay as described in Example 9. Normal fibroblasts were plated in 16 mm culture dishes, grown for 72-96 hr in DMEM medium with 10% fetal bovine serum (FBS) and then transferred to DMEM medium with 10% lipoprotein-depleted serum (LPDS) for 48 hr to upregulate the LDL receptors. The amount of ^125 I-LDL bound per well was normalized to the protein content of each well, which was measured with the Bio-Rad protein assay reagent using bovine serum albumin (BSA) as a standard.

[2] = system: Human peripheral blood mononuclear (PBM) cells; experiment: PHA-stimulated lymphocyte proliferation (3H-thymidine uptake); type: cell-based; conditions: for ED50 or dose of peptide required to inhibit lymphocyte proliferation 50%: Example 17
Source text: A lymphocyte cell culture system was used to examine the ability of various polypeptides and conjugates to mimic the ability of Apo E to inhibit lymphocyte differentiation as evidence by proliferation.
Human peripheral blood mononuclear (PBM) cells are isolated from whole blood on a Ficoll-Hypaque gradient. The collected PBMs are washed three times with fresh medium (RPMI-1640 plus 5% fetal bovine serum, glutamine, penicillin, streptomycin and HEPES buffer). After washing, the cells are counted and set at a density of 1×10^5 /ml. For culture, 0.2 ml of the cells are plated per well of a 96-well microtiter plate. The peptide or conjugate is added to the wells in a 50 ul volume that can be either filter or UV sterilized. The typical timing for this experiment is to expose the cells to the Apo E polypeptide or self-conjugate over night. PHA, the mitogen that stimulates lymphocyte growth and proliferation, is added the next day. Forty-eight hours after the addition of PHA, 1 uCi of ^3 H-thymidine is added per well in a 1 ul volume and 18-24 hours later the cells are harvested on a mash. The mash cell harvester functions to collect the cells on filter paper where they are washed with buffer to remove free ^3 H-thymidine. The filter papers are dried, put into scintillation vials with scintillation cocktail and the B emissions obtained. Each data point collected represents the average thymidine uptake in four wells, and the standard error was less than 10% for all data points.
Various concentrations of various Apo E peptide were added to cultures that contained 8×10^5 peripheral blood mononuclear cells per ml. The cells were cultured at 37C and RPMI with 5% serum. All cells were exposed to PHA at 24 hours, labeled with 3H-thymidine at 72 hours and harvested at 90 hours. The counts per minute (cpm) of 3H-thymidine in the harvested cells was measured, and the data are expressed as the mean of four wells per treatment as a measure of thymidine uptake (x 1000 cpm). The standard deviation was less than 10% for all means.

LDL receptor = LDL receptor (Homo sapiens, UniProt P01130); experiment: fibroblast 125I-LDL degradation; type: cell-based; parameters: transferred to DMEM medium with 10% lipoprotein-depleted serum (LPDS) for 48 hr to upregulate the LDL receptors; endogenous in cells; host or cells: normal fibroblasts; conditions: molar basis
Method: A trimer of the p141-155 peptide, p(141-155)3, was synthesized as in Example 1 and its activity compared with p(141-155) (monomeric) and with p(141-155)2 (dimeric) peptide. Normal fibroblasts were plated in wells of a 96-well culture plate and grown for 96 hr in DMEM medium with 10% FBS. The cells were transferred to DMEM medium with 10% LPDS for 48 hr to up regulate the LDL receptors. The LDL degradation assay was performed according to Example 9 with 2 μg/ml of ^125 I-LDL (300-500 cpm/ng) in 0.2 ml/well in DMEM medium with 10% LPDS and incubated for 5 hr at 37° C. The supernatants removed from the wells were extracted with 10% TCA. The TCA soluble counts were normalized to protein content per well as measured by the Bio-Rad protein assay.

[3] = system: ovarian theca/interstitial cells; experiment: ovarian androgen (androstenedione) production, LH-stimulated cultures; type: cell-based, rats; conditions: non-conjugated, monomeric form
Source text: The cell system used to examine the effect of various peptides and conjugates on ovarian androgen production was that described by Curtiss et al., J. Biol. Chem., 263:10965, (1988). Briefly, hypophysectomized (pituitary removed) immature female rats are sacrificed by cervical dislocation. The ovaries taken from the rats were trimmed free of fat and other non-ovarian tissues, cut into approximately six to eight pieces per ovary and dissociated in a solution of collagenase Dnaase which degrades the connective tissue releasing cell clusters. Approximately one to two hours of 37C incubation is required to dissociate the tissue. The cells were washed three times with fresh McCoy's 5A modified medium supplemented with glutamine and penicillin/streptomycin. No serum was added to this medium. The cells were cultured over night in 10 ml of medium in a T-25 flask to allow the non-steroidogenic cells to adhere. The next day non-adherent cells were recovered, washed three times with fresh media, counted and plated at a density of 1×10^3/ ml aliquotting 0.2 ml per well of a 96-well microtiter plate. All media in the experiment contains luteinizing hormone (LH) at 4 ng/ml and human high density lipoprotein (HDL) at 300 μg protein/mi. Monomeric peptides, peptide-BSA conjugates and self-conjugated peptide preparations at various concentrations (0.2 to 50 μg/ml) were added to the cells. The cells were then cultured for 48 hours at 37C, the supernatants were recovered, transferred to a clean 96-well microtiter plate and kept at -20C until the concentrations of androstenedione and progesterone were measured by radioimmunoassay. Each data point represents the average of measured androstenedione concentrations in four wells per treatment, and the standard error was less than 10% for all data points.
The ability of tandem Apo E peptide p(141-155)2 and self-conjugates of this peptide to affect ovarian androgen production was examined using the assay described in Example 4. […] After 48 hours of culture, the supernatants were collected, the androstenedione concentration measured by radioimmunoassay. […]

T1 sequence (P01130 22-860): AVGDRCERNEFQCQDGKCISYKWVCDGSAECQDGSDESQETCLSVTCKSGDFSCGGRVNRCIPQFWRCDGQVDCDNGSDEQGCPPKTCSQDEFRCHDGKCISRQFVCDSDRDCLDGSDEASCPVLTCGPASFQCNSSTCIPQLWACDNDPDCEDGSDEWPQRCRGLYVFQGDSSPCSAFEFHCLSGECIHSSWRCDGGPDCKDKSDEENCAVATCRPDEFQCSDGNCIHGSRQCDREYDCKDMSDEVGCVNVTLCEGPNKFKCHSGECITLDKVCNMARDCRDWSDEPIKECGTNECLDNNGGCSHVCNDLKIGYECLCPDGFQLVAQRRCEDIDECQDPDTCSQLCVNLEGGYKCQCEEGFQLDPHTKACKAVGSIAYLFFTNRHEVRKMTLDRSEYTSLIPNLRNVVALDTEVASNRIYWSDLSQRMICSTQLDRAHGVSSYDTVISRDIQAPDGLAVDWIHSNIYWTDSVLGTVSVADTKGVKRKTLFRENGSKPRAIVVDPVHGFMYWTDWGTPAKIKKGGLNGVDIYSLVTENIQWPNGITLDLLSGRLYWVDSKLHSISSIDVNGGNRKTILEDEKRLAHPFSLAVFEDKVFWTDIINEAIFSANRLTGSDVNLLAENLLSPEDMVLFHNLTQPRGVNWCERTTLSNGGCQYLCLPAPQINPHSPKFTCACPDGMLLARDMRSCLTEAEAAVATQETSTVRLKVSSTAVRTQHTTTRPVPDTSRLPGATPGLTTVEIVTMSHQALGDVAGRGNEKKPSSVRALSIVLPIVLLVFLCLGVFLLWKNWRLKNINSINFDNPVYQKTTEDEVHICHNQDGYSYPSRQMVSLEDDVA
Chain of LDL receptor (P01130 22-860): as above

effect of substitution on ability to inhibit binding of 125I-LDL to fibroblasts (fibroblast LDL receptors): smallest effect
Substance: LRALRKRLLRDADDLLRALRKRLLRDADD [p(K143 --A)2]
peptide concentration above which uptake of tritiated thymidine / lymphocyte proliferation was inhibited [1]: above 4 uM
IC50 [1]: 5.6 ± 1.7 µM

Substance: LRKLRKRLLADADDLLRKLRKRLLADADD [p(K150 --A)2]
peptide concentration above which uptake of tritiated thymidine / lymphocyte proliferation was inhibited [1]: above 4 uM
IC50 [1]: 7.5 ± 3 µM
effect of substitution on ability to inhibit binding of 125I-LDL to fibroblasts (fibroblast LDL receptors): without significant alterations in the biological activity

effectiveness in inhibiting fibroblast 125I-LDL degradation relative to the dimeric peptide (LDL receptor): 15 times
Substance: LRKLRKRLLRDADDLLRKLRKRLLRDADD-LRKLRKRLLRDADDL [p(141-155)3]
ED50 or dose of peptide required to inhibit lymphocyte proliferation 50% [2]: 7 µM

activity in inhibiting 125I-LDL binding to fibroblasts (fibroblast LDL receptors; at 60 μM): no activity
Substance: LRKPRKRLLRDADDLLRKPRKRLLRDADDL [144 leu--pro, (LRKPRKRLLRDADDL)2]

Substance: RGLSAIRERL [p172-182, reference compound]
effect on androgen secretion [3]: no effect

Substance: Self-conjugated apo AI95-105: self-conjugated control peptide of apo AI residues 95-105 (AKVQPYLDDFQ; also: self-conjugated; UniProt P02647 119-129, looked up, fragment) [reference compound]
3H-Thymidine Uptake (cpm ± SD), With Washing ([2]; 40 μg/ml, cells washed three times at 24 hr prior to PHA): 64,524 ± 4,200 cpm
3H-Thymidine Uptake (cpm ± SD), No Washing ([2]; 40 μg/ml, no washing): 83,480 ± 4,027 cpm

Substance: Y(LRKLRKRLLRDADDL)4 [Tetramer]
ED50 or dose of peptide required to inhibit lymphocyte proliferation 50% [2]: 1.2 µM
inhibitory activity relative to the dimer ([1]; molar basis): twice
IC50 [1]: 2.8 ± 1.3 µM

Reference: patent publication US5473039A, “Polypeptide analogs of apolipoprotein E, diagnostic systems and methods using the analogs” (The Scripps Research Institute, priority 1991, dated 1995)
